# Experimental data from ChEMBL document CHEMBL3045634, “Quantitative structure activity relationship analysis of angiotensin II AT1 receptor antagonists” (Med Chem Res, 2010).
# Target: T1, Type-1 angiotensin II receptor (Homo sapiens) (UniProt P30556)
# T1 sequence (whole entry): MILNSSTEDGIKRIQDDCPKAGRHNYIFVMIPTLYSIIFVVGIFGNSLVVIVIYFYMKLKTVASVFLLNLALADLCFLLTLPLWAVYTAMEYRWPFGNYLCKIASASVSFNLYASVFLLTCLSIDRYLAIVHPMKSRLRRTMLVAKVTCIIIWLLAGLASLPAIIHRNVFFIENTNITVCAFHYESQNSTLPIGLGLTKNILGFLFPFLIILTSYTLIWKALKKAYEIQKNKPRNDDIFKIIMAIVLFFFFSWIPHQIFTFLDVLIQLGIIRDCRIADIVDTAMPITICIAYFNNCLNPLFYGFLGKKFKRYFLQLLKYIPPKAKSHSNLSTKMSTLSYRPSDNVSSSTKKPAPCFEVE
# Experiment: (§1) Antagonist activity at angiotensin 2 type-1 receptor (unknown origin)
row,pIC50,SMILES
1,6.05,CCCCc1ncc(/C=C2/C(=O)N(CCCC)C(=O)N2Cc2ccc(-c3ccccc3)cc2)n1Cc1ccc(C(=O)OC)cc1

# Target: T2, Type-1 angiotensin II receptor (Homo sapiens, UniProt P30556)
# T2 sequence (P30556 whole entry): T1 sequence (whole entry)
# Experiment: as §1
row,SMILES,IC50
1,CCCCc1ncc(/C=C2/C(=O)N(CCC)C(=O)N2Cc2csc(C)n2)n1Cc1ccc(C(=O)OC)cc1,9 nM
2,CCCCc1ncc(/C=C2\C(=O)NC(=O)N2CCC(C)C)n1Cc1ccc(C(=O)O)cc1,4.9 nM
3,CCCCc1ncc(/C=C2/C(=O)N(CCCC)C(=O)N2Cc2ccoc2)n1Cc1ccc(C(=O)OC)cc1,8.3 nM
4,CCCCc1ncc(/C=C2/C(=O)N(CCCC)C(=O)N2Cc2csc(N)n2)n1Cc1ccc(C(=O)O)cc1,0.6 nM
5,CCCCc1ncc(/C=C2/C(=O)N(CCCC)C(=O)N2Cc2ccc(O)c(O)c2)n1Cc1ccc(C(=O)OC)cc1,4.9 nM
6,CCCCc1ncc(/C=C2/C(=O)N(CCCC)C(=O)N2Cc2ccc(C)cc2)n1Cc1ccc(C(=O)OC)cc1,34.6 nM
7,CCCCc1ncc(/C=C2/C(=O)N(CCCC)C(=O)N2Cc2cc(C)cs2)n1Cc1ccc(C(=O)O)cc1,1.5 nM
8,CCCCc1ncc(/C=C2\C(=O)NC(=O)N2Cc2cccs2)n1Cc1ccc(C(=O)O)cc1,2.6 nM
9,CCCCc1ncc(/C=C2/C(=O)N(CCCC)C(=O)N2Cc2ccsc2)n1Cc1ccc(C(=O)O)cc1,0.9 nM
10,CCCCc1ncc(/C=C2\C(=O)N(CCCC)C(=O)N2CCCC)n1Cc1ccc(C(=O)O)cc1,0.5 nM
11,CCCCc1ncc(/C=C2/C(=O)N(CCCC)C(=O)N2Cc2ccc(C#N)cc2)n1Cc1ccc(C(=O)OC)cc1,11.1 nM
12,CCCCc1ncc(/C=C2/C(=O)N(CCCC)C(=O)N2CCc2csc(Br)c2)n1Cc1ccc(C(=O)OC)cc1,25.4 nM
13,CCCCc1ncc(/C=C2/C(=O)N(CCCC)C(=O)N2Cc2ccc(C)s2)n1Cc1ccc(C(=O)O)cc1,0.6 nM
14,CCCCc1ncc(/C=C2\C(=O)N(CCCC)C(=O)N2Cc2csc(N)n2)n1Cc1ccc(C(=O)O)cc1,0.5 nM
15,CCCCc1ncc(/C=C2/C(=O)NC(=O)N2CCC(C)C)n1Cc1ccc(C(=O)O)cc1,6.6 nM
16,CCCCc1ncc(/C=C2\C(=O)NC(=O)N2Cc2ccccc2)n1Cc1ccc(C(=O)O)cc1,3.4 nM
17,CCCCc1ncc(/C=C2/C(=O)N(CSCC)C(=O)N2Cc2csc(C)n2)n1Cc1ccc(C(=O)OC)cc1,9.6 nM

row,SMILES,IC50
1,CCCCc1ncc(/C=C2/C(=O)N(CCCC)C(=O)N2Cc2cccc(Cl)c2)n1Cc1ccc(C(=O)OC)cc1,117 nM
2,CCCCc1ncc(/C=C2/C(=O)N(CCCC)C(=O)N2Cc2csc(C)n2)n1Cc1ccc(C2(C(=O)O)CCCC2)cc1,8 nM
3,CCCCc1ncc(/C=C2\C(=O)NC(=O)N2CCCC)n1Cc1ccc(C2(C(=O)OC)CCCC2)cc1,2.5 nM
4,CCCCc1ncc(/C=C2/C(=O)N(CCCC)C(=O)N2Cc2c[nH]cn2)n1Cc1ccc(C(=O)OC)cc1,54.5 nM
5,CCCCc1ncc(/C=C2/C(=O)NC(=O)N2CCCC)n1Cc1ccc(S(=O)(=O)NC(F)(F)F)cc1,3.3 nM
6,CCCCc1ncc(/C=C2/C(=O)NC(=O)N2CCCC)n1Cc1ccc(-c2nn[nH]n2)cc1,7.1 nM
7,CCCCc1ncc(/C=C2/C(=O)N(CCCC)C(=O)N2Cc2ccc(C(F)(F)F)cc2)n1Cc1ccc(C(=O)OC)cc1,159 nM
8,CCCCc1ncc(/C=C2/C(=O)N(CCCC)C(=O)N2Cc2ccc3ccccc3c2)n1Cc1ccc(C(=O)OC)cc1,104 nM
9,CCCCc1ncc(/C=C2/C(=O)N(CCCC)C(=O)N2Cc2ccc(OC)cc2)n1Cc1ccc(C(=O)OC)cc1,9.8 nM
10,CCCCc1ncc(/C=C2/C(=O)N(CCCC)C(=O)N2Cc2ccc(Cl)cc2)n1Cc1ccc(C(=O)OC)cc1,17.6 nM
11,CCCCc1ncc(/C=C2/C(=O)N(C)C(=O)N2Cc2csc(C)n2)n1Cc1ccc(C(=O)OC)cc1,16.6 nM
12,CCCCc1ncc(/C=C2/C(=O)N(CCCC)C(=O)N2c2ccccc2)n1Cc1ccc(C(=O)OC)cc1,6.1 nM
13,CCCCc1ncc(/C=C2\C(=O)N(CCCC)C(=O)N2Cc2csc(C)n2)n1Cc1ccc(C(=O)O)cc1,1.7 nM
14,CCCCc1ncc(/C=C2/C(=O)N(CCCC)C(=O)N2Cc2cccc(C)c2)n1Cc1ccc(C(=O)OC)cc1,18.5 nM
15,CCCCc1ncc(/C=C2/C(=O)NC(=O)N2CCCC)n1Cc1ccc(C(=O)OC)cc1,3.5 nM
16,CCCCc1ncc(/C=C2/C(=O)N(CCCC)C(=O)N2Cc2c[nH]c(C)n2)n1Cc1ccc(C(=O)OC)cc1,245 nM
17,CCCCc1ncc(/C=C2/C(=O)N(CCCC)C(=O)N2Cc2ccc(N)cc2)n1Cc1ccc(C(=O)OC)cc1,3 nM

# Further molecules by falling IC50, results first:
row,IC50,SMILES
1,884 nM,CCCCc1ncc(/C=C2/C(=O)N(CCCC)C(=O)N2Cc2ccc(-c3ccccc3)cc2)n1Cc1ccc(C(=O)OC)cc1
2,70 nM,CCCCc1ncc(/C=C2/C(=O)N(CCCC(F)(F)F)C(=O)N2Cc2csc(C)n2)n1Cc1ccc(C(=O)OC)cc1
3,47.9 nM,CCCCc1ncc(/C=C2/C(=O)N(CCCO)C(=O)N2Cc2csc(C)n2)n1Cc1ccc(C(=O)OC)cc1
4,29.6 nM,CCCCc1ncc(/C=C2/C(=O)N(CCCC)C(=O)N2CCCC)n1Cc1ccc(S(=O)(=O)NC(F)(F)F)cc1
5,11.1 nM,CCCCc1ncc(/C=C2/C(=O)N(CCCC)C(=O)N2C=C(C)C)n1Cc1ccc(C(=O)OC)cc1
6,7.1 nM,CCCCc1ncc(/C=C2/C(=O)NC(=O)N2Cc2cccs2)n1Cc1ccc(C(=O)OC)cc1
7,4.8 nM,CCCCc1ncc(/C=C2/C(=O)N(CCCC)C(=O)N2Cc2ccsc2)n1Cc1ccc(C(=O)OC)cc1
8,4.2 nM,CCCCc1ncc(/C=C2/C(=O)N(CCCC)C(=O)N2Cc2ccc(C(=O)OC)s2)n1Cc1ccc(C(=O)OC)cc1
9,4.2 nM,CCCCc1ncc(/C=C2\C(=O)NC(=O)N2CCCC)n1Cc1ccc(-c2nn[nH]n2)cc1
10,4 nM,CCCCc1ncc(/C=C2/C(=O)NC(=O)N2Cc2ccccc2)n1Cc1ccc(C(=O)O)cc1
11,3 nM,CCCCc1ncc(/C=C2/C(=O)NC(=O)N2Cc2ccc(Cl)cc2)n1Cc1ccc(C(=O)O)cc1
12,2.3 nM,CCCCc1ncc(/C=C2/C(=O)NC(=O)N2Cc2cccs2)n1Cc1ccc(C(=O)O)cc1
13,1.9 nM,CCCCc1ncc(/C=C2/C(=O)N(CCCC)C(=O)N2Cc2csc(C)n2)n1Cc1ccc(C(=O)OC)cc1
14,1.4 nM,CCCCc1ncc(/C=C2/C(=O)NC(=O)N2CCCC)n1Cc1ccc(-c2ccccc2-c2nn[nH]n2)cc1
15,0.7 nM,CCCCc1ncc(/C=C2/C(=O)N(CCCC)C(=O)N2Cc2cccs2)n1Cc1ccc(C(=O)O)cc1
16,0.6 nM,CCCCc1ncc(/C=C2\C(=O)N(CCCC)C(=O)N2Cc2cccs2)n1Cc1ccc(C(=O)O)cc1
